Assay results as given in US12226424B2, “Target protein degradation compounds, their anti-tumor use, their intermediates and use of intermediates” (ShanghaiTech University, priority 2018, dated 2025).
Where two headings read alike, the source gives them in different places.

Legend:
[1] = system: MDA-MB-436 cells (PARP-positive); test: Half inhibitory concentration (IC50) on PARP-positive tumor cells, CCK-8, MDA-MB-436; format: cell-based; settings: Homo sapiens, 72 hours, read-out: IC50 (μM)/MDA-MB-436 cell line
Method: PARP-positive cells MDA-MB-436 cells (human breast cancer cells) were purchased from the American Type Culture Collection (ATCC).
The cells used in this present disclosure were cultured in a 37° C. incubator containing 5% CO2. The complete cell culture medium was DMEM medium with 10% fetal bovine serum, and the final concentrations of penicillin and streptomycin were 100 U/mL, respectively. All cells were tested negative for mycoplasma with mycoplasma detection kit before the experiment.
Determination of Half Inhibitory Concentration (IC50) of PROTAD Compounds on Tumor Cells
MDA-MB-436 cells were seeded in 100 μL DMEM complete medium at a density of 3500 cells/well. 100 μL of the inoculated cells were treated with 0.5 μL diluted PROTAD compounds of the present disclosure to be tested at 10 successively decreasing concentrations (starting at the highest concentration of 50 μM; 3-fold serial dilutions). After the cells were treated with the tested drugs for 72 hours, cell viability was determined according to the CCK-8 reagent operating instructions. The negative control was DMSO, and the positive control was a commercial inhibitor. After CCK-8 treatment for 2 h, the value of O.D.450 was measured using a microplate reader.

[2] = system: K562 cells (BCR-ABL positive); test: Half inhibitory concentration (IC50) on tumor cells, CCK-8, K562; settings: read-out: IC50 (nM)/K562 cell line
U937 cells = test: Proliferation inhibition (IC50) on non-BCR-ABL-positive U937 cells
HEK293 cells = test: Proliferation inhibition (IC50) on non-BCR-ABL-positive HEK293 cells
BCR-ABL = BCR-ABL (Homo sapiens, UniProt P00519); test: Western-blot half-degradation concentration (DC50) / degradation of BCR-ABL in K562 cells; settings: read-out: DC50 (nM)/K562 cell line, BCR-ABL protein degradation, 24 hours, Western-blot
BCR-ABL, sequence (P00519 with tags, fused parts or gaps): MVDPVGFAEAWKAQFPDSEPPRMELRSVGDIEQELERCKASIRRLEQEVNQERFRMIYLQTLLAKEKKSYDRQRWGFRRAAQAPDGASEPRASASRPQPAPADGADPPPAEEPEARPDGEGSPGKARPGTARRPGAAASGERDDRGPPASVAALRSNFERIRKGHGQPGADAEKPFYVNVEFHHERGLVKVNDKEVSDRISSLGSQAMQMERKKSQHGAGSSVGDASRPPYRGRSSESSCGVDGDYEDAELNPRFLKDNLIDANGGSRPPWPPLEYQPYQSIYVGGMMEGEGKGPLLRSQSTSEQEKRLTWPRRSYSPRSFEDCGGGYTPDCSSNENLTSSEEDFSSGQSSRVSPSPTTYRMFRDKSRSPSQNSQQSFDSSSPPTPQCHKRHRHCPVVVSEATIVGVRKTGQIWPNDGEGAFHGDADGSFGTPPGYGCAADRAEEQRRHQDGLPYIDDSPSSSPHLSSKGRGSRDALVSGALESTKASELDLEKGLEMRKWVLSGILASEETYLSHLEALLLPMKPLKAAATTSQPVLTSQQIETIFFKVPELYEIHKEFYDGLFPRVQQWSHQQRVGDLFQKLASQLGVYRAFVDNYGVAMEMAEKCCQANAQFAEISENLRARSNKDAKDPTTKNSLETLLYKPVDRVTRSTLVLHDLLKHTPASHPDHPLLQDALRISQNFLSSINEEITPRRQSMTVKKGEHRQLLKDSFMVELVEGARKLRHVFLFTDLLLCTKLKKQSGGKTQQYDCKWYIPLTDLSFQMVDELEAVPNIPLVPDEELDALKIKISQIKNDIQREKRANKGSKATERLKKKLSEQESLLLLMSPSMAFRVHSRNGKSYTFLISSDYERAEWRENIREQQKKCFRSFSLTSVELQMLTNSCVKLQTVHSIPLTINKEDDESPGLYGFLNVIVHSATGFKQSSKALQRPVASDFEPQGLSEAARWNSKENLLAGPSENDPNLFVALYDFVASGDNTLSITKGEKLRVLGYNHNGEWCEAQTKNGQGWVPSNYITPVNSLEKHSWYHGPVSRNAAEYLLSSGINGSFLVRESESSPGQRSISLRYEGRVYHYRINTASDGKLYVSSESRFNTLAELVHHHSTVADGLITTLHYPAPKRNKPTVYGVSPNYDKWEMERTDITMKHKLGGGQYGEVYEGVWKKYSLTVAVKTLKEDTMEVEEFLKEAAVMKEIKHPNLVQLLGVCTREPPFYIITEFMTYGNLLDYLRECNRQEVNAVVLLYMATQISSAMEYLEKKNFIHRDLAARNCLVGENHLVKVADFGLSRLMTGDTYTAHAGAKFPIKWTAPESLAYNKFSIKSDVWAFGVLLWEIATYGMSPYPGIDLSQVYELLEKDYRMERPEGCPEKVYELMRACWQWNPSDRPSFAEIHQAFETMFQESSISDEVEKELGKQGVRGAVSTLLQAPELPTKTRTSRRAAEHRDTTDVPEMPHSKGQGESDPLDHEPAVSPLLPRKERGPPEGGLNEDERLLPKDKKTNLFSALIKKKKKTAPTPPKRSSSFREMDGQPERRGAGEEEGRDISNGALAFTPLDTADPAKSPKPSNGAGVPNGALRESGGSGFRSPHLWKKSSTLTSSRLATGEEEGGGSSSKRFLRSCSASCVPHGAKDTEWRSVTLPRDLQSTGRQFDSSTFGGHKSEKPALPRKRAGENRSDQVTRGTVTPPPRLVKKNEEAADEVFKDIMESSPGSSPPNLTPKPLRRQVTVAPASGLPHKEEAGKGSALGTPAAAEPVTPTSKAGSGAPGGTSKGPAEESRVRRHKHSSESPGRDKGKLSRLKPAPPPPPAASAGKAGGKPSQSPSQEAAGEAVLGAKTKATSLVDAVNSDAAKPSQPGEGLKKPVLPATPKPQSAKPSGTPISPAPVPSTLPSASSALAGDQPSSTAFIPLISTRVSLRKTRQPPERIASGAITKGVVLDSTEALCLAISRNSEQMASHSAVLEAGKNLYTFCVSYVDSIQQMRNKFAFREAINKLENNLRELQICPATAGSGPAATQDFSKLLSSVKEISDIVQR

[3] = Homo sapiens, U-937, read-out: IC50 (nM)/U937 cell line
[4] = Homo sapiens, HEK293, read-out: IC50 (nM)/HEK293 cell line

Structure (SMILES) | IC50 [1] | IC50 ([2]; Homo sapiens, K562, 48 h) | IC50 (U937 cells; [3]) | IC50 (HEK293 cells; [4]) | DC50 (BCR-ABL) | further results
CNCc1ccc(-c2[nH]c3cc(F)cc4c3c2CCNC4=O)cc1 [Rucaparib, reference compound] | 1.12 µM | – | – | – | – | –
Cc1nc(Nc2ncc(C(=O)Nc3c(C)cccc3Cl)s2)cc(N2CCN(CCSc3cccc4c3C(=O)N(C3CCC(=O)NC3=O)C4=O)CC2)n1 (centres unmarked) [SIAIS172056, N-(2-chloro-6-methylphenyl)-2-((6-(4-(2-((2-(2,6-dioxopiperidin-3-yl)-1,3-dioxoisoindolin-4-yl)thio)ethyl)piperazin-1-yl)-2-methylpyrimidin-4-yl)amino)thiazole-5-carboxamide] | – | 0.49 nM | > 10000 nM | > 10000 nM | < 1 nM | –
O=C(c1cc(Cc2n[nH]c(=O)c3ccccc23)ccc1F)N1CCN(C(=O)C2CC2)CC1 [Olaparib, reference compound] | 2.31 µM | – | – | – | – | –
Cc1nc(Nc2ncc(C(=O)Nc3c(C)cccc3Cl)s2)cc(N2CCN(C(=O)CCCSc3cccc4c3CN(C3CCC(=O)NC3=O)C4=O)CC2)n1 (centres unmarked) [SIAIS171107, N-(2-chloro-6-methylphenyl)-2-((6-(4-(4-((2-(2,6-dioxopiperidin-3-yl)-1-oxoisoindolin-4-yl)thio)butanoyl)piperazin-1-yl)-2-methylpyrimidin-4-yl)amino)thiazole-5-carboxamide] | – | 1.4 nM | > 10000 nM | > 10000 nM | 5.2 nM | –
Cc1nc(Nc2ncc(C(=O)Nc3c(C)cccc3Cl)s2)cc(N2CCN(C(=O)CCSc3cccc4c3CN(C3CCC(=O)NC3=O)C4=O)CC2)n1 (centres unmarked) [SIAIS171106, N-(2-chloro-6-methylphenyl)-2-((6-(4-(3-((2-(2,6-dioxopiperidin-3-yl)-1-oxoisoindolin-4-yl)thio)propanoyl)piperazin-1-yl)-2-methylpyrimidin-4-yl)amino)thiazole-5-carboxamide] | – | 1.74 nM | > 10000 nM | > 10000 nM | 10.3 nM | –
Cc1nc(Nc2ncc(C(=O)Nc3c(C)cccc3Cl)s2)cc(N2CCN(C(=O)CCCCSc3cccc4c3CN(C3CCC(=O)NC3=O)C4=O)CC2)n1 (centres unmarked) [SIAIS171108, N-(2-chloro-6-methylphenyl)-2-((6-(4-(5-((2-(2,6-dioxopiperidin-3-yl)-1-oxoisoindolin-4-yl)thio)pentanoyl)piperazin-1-yl)-2-methylpyrimidin-4-yl)amino)thiazole-5-carboxamide] | – | 0.54 nM | > 10000 nM | > 10000 nM | < 1 nM | –
O=C1CCC(N2C(=O)c3cccc(SCCCCCC(=O)N4CCN(C(=O)c5cc(Cc6n[nH]c(=O)c7ccccc67)ccc5F)CC4)c3C2=O)C(=O)N1 (centres unmarked) [SIAIS180067, 2-(2,6-dioxopiperidin-3-yl)-4-((6-(4-(2-fluoro-5-((4-oxo-3,4-dihydrophthalazin-1-yl)methyl)benzoyl)piperazin-1-yl)-6-oxohexyl)thio)isoindoline-1,3-dione] | 2.9 µM | – | – | – | – | –
O=C1CCC(N2C(=O)c3cccc(SCCC(=O)N4CCN(C(=O)c5cc(Cc6n[nH]c(=O)c7ccccc67)ccc5F)CC4)c3C2=O)C(=O)N1 (centres unmarked) [SIAIS180064, 2-(2,6-dioxopiperidin-3-yl)-4-((3-(4-(2-fluoro-5-((4-oxo-3,4-dihydrophthalazin-1-yl)methyl)benzoyl)piperazin-1-yl)-3-oxopropyl)thio)isoindoline-1,3-dione] | 5.78 µM | – | – | – | – | –
Cc1nc(Nc2ncc(C(=O)Nc3c(C)cccc3Cl)s2)cc(N2CCN(C(=O)CCCCCSc3cccc4c3CN(C3CCC(=O)NC3=O)C4=O)CC2)n1 (centres unmarked) [SIAIS 171109] | – | – | – | – | – | IC50 ([2]; K562 cells, 48 hours, CCK-8): 0.53 nM; IC50 (U937 cells; read-out: IC50 (nM)/U937 cell line, U937 cells, highest concentration 10 μM): > 10000 nM; IC50 (HEK293 cells; read-out: IC50 (nM)/HEK293 cell line, HEK293 cells, highest concentration 10 μM): > 10000 nM
Cc1nc(Nc2ncc(C(=O)Nc3c(C)cccc3Cl)s2)cc(N2CCN(C(=O)CSc3cccc4c3C(=O)N(C3CCC(=O)NC3=O)C4=O)CC2)n1 (centres unmarked) [SIAIS151110, N-(2-chloro-6-methylphenyl)-2-((6-(4-(2-((2-(2,6-dioxopiperidin-3-yl)-1,3-dioxoisoindolin-4-yl)thio)acetyl)piperazin-1-yl)-2-methylpyrimidin-4-yl)amino)thiazole-5-carboxamide] | – | 3.2 nM | > 10000 nM | > 10000 nM | < 1 nM | –
O=C1CCC(N2C(=O)c3cccc(SCCCCC(=O)N4CCN(C(=O)c5cc(Cc6n[nH]c(=O)c7ccccc67)ccc5F)CC4)c3C2=O)C(=O)N1 (centres unmarked) [SIAIS180066, 2-(2,6-dioxopiperidin-3-yl)-4-((5-(4-(2-fluoro-5-((4-oxo-3,4-dihydrophthalazin-1-yl)methyl)benzoyl)piperazin-1-yl)-5-oxopentyl)thio)isoindoline-1,3-dione] | 3.57 µM | – | – | – | – | –
Cc1nc(Nc2ncc(C(=O)Nc3c(C)cccc3Cl)s2)cc(N2CCN(C(=O)CSc3cccc4c3CN(C3CCC(=O)NC3=O)C4=O)CC2)n1 (centres unmarked) [SIAIS171105, N-(2-chloro-6-methylphenyl)-2-((6-(4-(2-((2-(2,6-dioxopiperidin-3-yl)-1-oxoisoindolin-4-yl)thio)acetyl)piperazin-1-yl)-2-methylpyrimidin-4-yl)amino)thiazole-5-carboxamide] | – | 5.71 nM | > 10000 nM | > 10000 nM | 56.7 nM | –
Cc1nc(Nc2ncc(C(=O)Nc3c(C)cccc3Cl)s2)cc(N2CCN(C(=O)C[S+]([O-])c3cccc4c3C(=O)N(C3CCC(=O)NC3=O)C4=O)CC2)n1 (centres unmarked) [SIAIS151109, N-(2-chloro-6-methylphenyl)-2-((6-(4-(2-((2-(2,6-dioxopiperidin-3-yl)-1,3-dioxoisoindolin-4-yl)sulfinyl)acetyl)piperazin-1-yl)-2-methylpyrimidin-4-yl)amino)thiazole-5-carboxamide] | – | 148 nM | > 10000 nM | > 10000 nM | 483 nM | –
O=C1CCC(N2C(=O)c3cccc(SCC(=O)N4CCN(C(=O)c5cc(Cc6n[nH]c(=O)c7ccccc67)ccc5F)CC4)c3C2=O)C(=O)N1 (centres unmarked) [SIAIS180063, 2-(2,6-dioxopiperidin-3-yl)-4-((2-(4-(2-fluoro-5-((4-oxo-3,4-dihydrophthalazin-1-yl)methyl)benzoyl)piperazin-1-yl)-2-oxoethyl)thio)isoindoline-1,3-dione] | 6.45 µM | – | – | – | – | –
O=C1CCC(N2C(=O)c3cccc(SCCCC(=O)N4CCN(C(=O)c5cc(Cc6n[nH]c(=O)c7ccccc67)ccc5F)CC4)c3C2=O)C(=O)N1 (centres unmarked) [SIAIS180065, 2-(2,6-dioxopiperidin-3-yl)-4-((4-(4-(2-fluoro-5-((4-oxo-3,4-dihydrophthalazin-1-yl)methyl)benzoyl)piperazin-1-yl)-4-oxobutyl)thio)isoindoline-1,3-dione] | 3.82 µM | – | – | – | – | –
NC(=O)c1cccc2cn(-c3ccc([C@@H]4CCCNC4)cc3)nc12 [Niraparib, reference compound] | 1 µM | – | – | – | – | –
Cc1nc(Nc2ncc(C(=O)Nc3c(C)cccc3Cl)s2)cc(N2CCN(C(=O)CCCCCCSc3cccc4c3CN(C3CCC(=O)NC3=O)C4=O)CC2)n1 (centres unmarked) [SIAIS171110, N-(2-chloro-6-methylphenyl)-2-((6-(4-(7-((2-(2,6-dioxopiperidin-3-yl)-1-oxoisoindolin-4-yl)thio)heptanoyl)piperazin-1-yl)-2-methylpyrimidin-4-yl)amino)thiazole-5-carboxamide] | – | 1.33 nM | > 10000 nM | > 10000 nM | – | –
O=C1CCC(N2C(=O)c3cccc(SCCCCCCC(=O)N4CCN(C(=O)c5cc(Cc6n[nH]c(=O)c7ccccc67)ccc5F)CC4)c3C2=O)C(=O)N1 (centres unmarked) [SIAIS180068, 2-(2,6-dioxopiperidin-3-yl)-4-((7-(4-(2-fluoro-5-((4-oxo-3,4-dihydrophthalazin-1-yl)methyl)benzoyl)piperazin-1-yl)-7-oxoheptyl)thio)isoindoline-1,3-dione] | 2.09 µM | – | – | – | – | –
Cc1nc(Nc2ncc(C(=O)Nc3c(C)cccc3Cl)s2)cc(N2CCN(C(=O)CS(=O)(=O)c3cccc4c3C(=O)N(C3CCC(=O)NC3=O)C4=O)CC2)n1 (centres unmarked) [SIAIS151108, N-(2-chloro-6-methylphenyl)-2-((6-(4-(2-((2-(2,6-dioxopiperidin-3-yl)-1,3-dioxoisoindolin-4-yl)sulfonyl)acetyl)piperazin-1-yl)-2-methylpyrimidin-4-yl)amino)thiazole-5-carboxamide] | – | 206 nM | > 10000 nM | > 10000 nM | 245 nM | –
